According to patent US8435548B2, “Peptide derivatives and cosmetic composition comprising the same” (Bio-FD&C Co., Ltd, priority 2009, dated 2013):
Primed or numbered codes have the meaning given here. Where no end group is shown, it is not given here. Galloyl′ = not defined here

Assays:
[1] = test system: mushroom tyrosinase; assay: Inhibition effect on tyrosinase activity; type: biochemical; settings: test compound 100 μM; L-tyrosine substrate; pH 6.8; 37° C., 20 min; absorbance 490 nm
Method: Inhibition effects of the prepared compounds were measured by the known method (see: Pomerantz S. H., J. Biochem., 24:161-168, 1966).
The test compounds were prepared to a final concentration of 100 μM and put into a 96-well plate, and 220 μl of 100 mM sodium phosphate buffer (pH 6.8) and 40 μl of 1.5 mM L-tyrosine solution were added thereto. The resulting mixture was reacted with the addition of 20 μl of mushroom tyrosinase (1,500 units/ml, Sigma) at 37° C. for 20 min. 0.2 ml of the reacted solution was transferred to a 96-well plate, and its absorbance was measured at 490 nm with a microplate reader to obtain the inhibition effect on tyrosinase.
The tyrosinase inhibition effect was calculated according to the following formula 1 by using the absorbance of pure water as a control, and expressed as a percentage.

[2] = Free radical scavenging activity test (DPPH method, anti-oxidative activity); type: physicochemical; settings: 30 min, absorbance 517 nm
Method: A representative antioxidant, vitamin C (Sigma) was used as a positive control, and the galloyl-tetrapeptide and digalloyl-tetrapeptide according to the present invention were mixed with 1,1-diphenyl-2-picrylhydrazyl (DPPH, Sigma) producing free radicals in ethanol to determine the reduced amounts of the produced free radicals. […] The resulting solution was vigorously vortexed for 10 sec, kept at a dark cold place for 30 min, and then its absorbance was measured at 517 nm by ELISA method. The anti-oxidative activity (free radical scavenging activity) was calculated according to the following formula 2 by using the absorbance of pure water as a control, and expressed as a percentage. [formula]

Compound	Inhibition (%) [1] [%]	Free radical scavenging activity (%) ([2]; 10 uM)	Free radical scavenging activity (%) ([2]; 50 uM)	Free radical scavenging activity (%) ([2]; 100 uM)
Digalloyl-Tetrapeptide(Lysyl-Tyrosyl-Histidyl-Tyrosine) (KYHY; also: digalloyl: two galloyl groups, sites not given here) [Comparative Example 2, soy bean-derived peptide connected to gallic acid]	21			
Galloyl-Tetrapeptide(Lysyl-Glutamyl-Cysteinyl-Glycine) [Example 1]	40	65.8	78.2	78.1
Digalloyl-Tetrapeptide(Lysyl-Glutamyl-Cysteinyl-Glycine) [Example 2]	52	82.1	82.0	83.5
Galloyl-Tripeptide(Tyrosyl-Histidyl-Tyrosine) ({Galloyl′}-Tyr-His-Tyr) [Comparative Example 1, soy bean-derived peptide connected to gallic acid]	15			
O=C1O[C@H]([C@@H](O)CO)C(O)=C1O [Vitamin C]		55.2	68.3	72.5
O=C(O)c1cc(O)c(O)c(O)c1 [Gallic acid]	10	63.1	70.4	75.1
Galloyl-Tripeptide(Glutamyl-Cysteinyl-Glycine) [Example 3]	34			
